{
  "source": "patent US20070231374A1",
  "about": "“Composition Comprising Ether Lipid” (priority 2003, published 2007)",
  "key": {"[1]": {"test": "Phase diagram of GEO/water mixtures (polarising microscope, small angle x-ray diffraction)", "format": "physicochemical", "conditions": "mixtures with water, FIG. 1", "method": "Mixtures of glyceryl-1-monooleate ether (GEO) with water were prepared, shaken and allowed to equilibrate at a known temperature. The phase(s) of the resulting mixture were examined under the polarising microscope and by small angle x-ray diffraction.\nAt higher water content, both the L2 and the HII phases were stable in the presence of excess water."}, "[2]": {"conditions": "stated as known; cited from earlier work"}},
  "data": [
    {"compound": "CCCCCCCC/C=C\\CCCCCCCCOCC(O)CO", "note": "(stereo not drawn) [GEO, Glyceryl-1-monooleate ether]", "values": [
      {"measurement": "water concentration at which reversed hexagonal (HII) phase forms", "setting": "[1]", "value": "> 15", "unit": "%"},
      {"measurement": "stable phase in excess water", "setting": "[2]", "value": "reversed hexagonal"}
    ]},
    {"compound": "CCCCCCCC/C=C\\CCCCCCCC(=O)OCC(O)CO", "note": "(stereo not drawn) [GMO, glyceryl monooleate]", "values": [
      {"measurement": "stable phase in excess water", "setting": "[2]", "value": "reversed cubic"}
    ]}
  ]
}
